Data set [1] in a line: Log D measurement (n-octanol/PBS, gamma counting). It is filed as physicochemical. The conditions noted are these: measured with 125I-labelled compound.
The target of data set [2] is T1, Recombinant human caspase-3 (Homo sapiens, UniProt P42574).
T1 sequence (P42574 29-175 limits assumed): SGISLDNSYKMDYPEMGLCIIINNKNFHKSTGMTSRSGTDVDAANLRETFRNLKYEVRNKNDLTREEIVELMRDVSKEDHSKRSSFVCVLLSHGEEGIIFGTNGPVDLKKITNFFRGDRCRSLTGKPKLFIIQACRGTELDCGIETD
T1 sequence (P42574 176-277 limits assumed): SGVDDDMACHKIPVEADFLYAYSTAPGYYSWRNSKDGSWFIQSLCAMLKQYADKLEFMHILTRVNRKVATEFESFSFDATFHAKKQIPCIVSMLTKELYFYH
In words: Caspase enzyme inhibition assay (fluorogenic Ac-DEVD-AMC), caspase-3.

For data set [3], the system named is SW1222 tumour-bearing mice. Nature of the data set: Ex vivo biodistribution in SW1222 tumour-bearing mice. The conditions noted are these: for Uptake in tumour: SW1222 xenograft, 60 min after i.v. injection.
The nature of data set [4]: Plasma metabolite analysis by HPLC. It is filed as in vivo, mice. The conditions noted are these: 15 min post-injection, i.v. The text has this: However, the overall uptake in the tumour was too low to allow in vivo imaging of tumour apoptosis with SPECT. […] It is unclear if this reflects drug induced apoptosis, or if the observed changes were due to swelling or increased local blood flow. […] A single polar radioactive metabolite was detected consistent with deiodination in vivo to give [^125I]iodide. However, it should be noted that a similar polar metabolite has been observed for the non-iodinated analog [^18F]ICM-11, and the low uptake in the thyroid (2.4 ± 1%ID/g at 60 min post-injection) and high liver uptake point to another metabolic route. In any case, the rapid metabolism makes FITI poorly suited as a tracer for in vivo imaging of apoptosis.
After an incubation period at 37 °C
linear correlation software (OriginPro 2015).
3.2. Plasma metabolite analysis
The supernatant was decanted and mixed with
3.3. Biodistribution studies in mice
week prior to initiation of studies.
College London Animal Ethics Committee.4
were rapidly excised and weighed.

The target of data set [5] is Recombinant human caspase-8 (Homo sapiens, UniProt Q14790). Nature of the data set: Caspase enzyme inhibition assay (fluorogenic Ac-IETD-AMC), caspase-8.
Chain of Recombinant human caspase-8 (Q14790 217-374 limits assumed): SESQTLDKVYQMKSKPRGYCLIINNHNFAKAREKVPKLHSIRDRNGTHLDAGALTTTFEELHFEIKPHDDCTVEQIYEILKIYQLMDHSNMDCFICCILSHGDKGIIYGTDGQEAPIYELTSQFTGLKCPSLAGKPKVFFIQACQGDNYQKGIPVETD
Chain of Recombinant human caspase-8 (Q14790 385-479 limits assumed): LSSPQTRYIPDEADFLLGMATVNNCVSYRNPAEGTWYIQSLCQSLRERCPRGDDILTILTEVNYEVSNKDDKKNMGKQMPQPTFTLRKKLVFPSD
Where [6] appears, read: control animals, 60 min after i.v. tail vein injection.

The results in this text go back to publication PMC6917698, “One-Pot Radiosynthesis and Biological Evaluation of a Caspase-3 Selective 5-[^123,125I]iodo-1,2,3-triazole derived Isatin SPECT Tracer” (Scientific Reports, 2019).

Some results are limits rather than exact numbers.

On to `O=C1C(=O)N(Cc2nnn(CCF)c2I)c2ccccc21` [compound 4], for which the pH-dependent lipophilicity (logD) – broadly, the decadic logarithm of the distribution of all forms, ionised or not, between an organic phase and buffer at a given pH – in data set [1] was 1.14 ± 0.06. Besides, in data set [2], the inhibitory constant (Ki) (as a rule, the dissociation constant of the complex between target and ligand, obtained from inhibition or displacement) was > 50 µM.

Regarding `O=C1C(=O)N(Cc2nnn(CCF)c2[125I])c2ccc(S(=O)(=O)N3CCCC3COc3ccc(F)cc3F)cc21` (stereo not shown) [[^125I]FITI], the Uptake in thyroid in data set [3] (60 min post-injection) stood at 2.4 ± 1 %ID/g. In data set [3] (setting [6]), the Uptake in liver is 17 ± 6 %ID/g, the “Uptake in small intestine” value was found to be 48 ± 13 %ID/g and the Uptake in stomach was 28 ± 25 %ID/g. In addition, the Uptake in tumour in data set [3] (control animals) was determined as 0.7 ± 0.4 %ID/g. For the same compound, the Uptake in tumour in data set [3] (etoposide-treated mice (50 mg/kg, 24 hrs, i.p.), p < 0.001 vs control) came out at 1.5 ± 0.2 %ID/g. In addition, the “Intact parent tracer in mouse plasma” value in data set [4] is given as “less than 50%”.

Consider `O=C1C(=O)N(Cc2nnn(CCF)c2I)c2ccc(S(=O)(=O)N3CCC[C@H]3COc3ccc(F)cc3F)cc21` [FITI, (S)-5-((2-((2,4-difluorophenoxy)methyl)pyrrolidin-1-yl)sulfonyl)-1-((1-(2-Fluoroethyl)-5-(Iodo)-1H-1,2,3-Triazol-4-yl)methyl)Indoline-2,3-dione], for which, in data set [1], the logD was found to be 1.6 ± 0.1. In addition, in data set [3] (SW1222 xenograft model, etoposide vs control), the “Increase in tumour uptake after etoposide-induced cell death” value was 2 fold. Further, the inhibition constant (Ki) in data set [2] amounted to 0.0061 ± 0.0009 µM. For the same compound, in data set [5], the IC50 – broadly, the concentration needed to halve the response being measured – was > 50 µM.
